Reference: ChEMBL document CHEMBL6115031, “Structure-Based Optimization of Moracin M as Potent and Selective PDE4 Inhibitors with Antipsoriasis Effects” (J Med Chem, 2025)
Active and inactive are the calls of the source. The rule behind the calls is not given here.

What was measured:
[1] = target: T1, 3',5'-cyclic-AMP phosphodiesterase 4D (Homo sapiens, UniProt Q08499); test: Inhibition of human PDE4D2 (86 to 413 residues) extracted from Escherichia coli BL21 cells using 3H-cAMP/3H-cGMP as substrate preincubated with compound for 15 mins followed by substrate addition by liquid scintillation counter
T1 sequence (Q08499 whole entry, the tested form may be a part): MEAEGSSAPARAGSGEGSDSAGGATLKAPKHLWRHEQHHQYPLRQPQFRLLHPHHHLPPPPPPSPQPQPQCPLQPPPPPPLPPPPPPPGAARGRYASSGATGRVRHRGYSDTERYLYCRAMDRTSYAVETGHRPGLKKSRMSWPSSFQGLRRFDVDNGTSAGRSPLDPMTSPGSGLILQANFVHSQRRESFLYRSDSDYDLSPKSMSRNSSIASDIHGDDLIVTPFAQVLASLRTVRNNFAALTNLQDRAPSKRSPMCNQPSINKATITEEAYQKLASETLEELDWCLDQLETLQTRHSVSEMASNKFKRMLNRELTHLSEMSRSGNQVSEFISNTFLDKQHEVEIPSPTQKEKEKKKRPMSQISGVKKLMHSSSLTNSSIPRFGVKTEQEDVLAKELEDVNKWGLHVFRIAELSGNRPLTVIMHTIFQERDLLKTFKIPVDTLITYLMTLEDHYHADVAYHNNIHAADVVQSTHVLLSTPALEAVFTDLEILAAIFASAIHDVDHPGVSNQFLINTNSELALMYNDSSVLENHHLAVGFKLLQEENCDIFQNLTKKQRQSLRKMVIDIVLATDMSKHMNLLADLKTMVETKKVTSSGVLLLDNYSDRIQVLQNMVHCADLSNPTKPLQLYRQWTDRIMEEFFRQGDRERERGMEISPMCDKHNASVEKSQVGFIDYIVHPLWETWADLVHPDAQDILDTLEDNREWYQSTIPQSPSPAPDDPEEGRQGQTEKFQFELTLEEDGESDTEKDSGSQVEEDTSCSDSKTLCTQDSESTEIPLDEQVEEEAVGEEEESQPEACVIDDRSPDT

[2] = Metabolic stability in rat liver microsomes assessed as half life at 1 uM incubated upto 60 mins in presence of NADPH by LC-MS/MS analysis; format: ADME, Microsome
Mus musculus [3] = test: Anti-psoriasis effect in IMQ-induced female BALB/c mouse model assessed as reduction in spinous layer thickness at 20 mg/kg administered topically as 0.3 % ointment pretreated with IMQ for 6 hrs followed by compound addition once daily for 7 days by H and E staining based analysis; format: functional, organism-based; settings: time 7.0 day
Mus musculus [4] = test: Anti-inflammatory activity in IMQ-induced psoriasis in female BALB/c mouse assessed as reduction in CCL-20 mRNA level at 20 mg/kg administered topically as 0.3 % ointment pretreated with IMQ for 6 hrs followed by compound addition once daily for 7 days by q-PCR analysis; format: functional, organism-based; settings: time 7.0 day
Mus musculus [5] = test: Anti-inflammatory activity in IMQ-induced psoriasis in female BALB/c mouse assessed as reduction in TNF-alpha mRNA level at 20 mg/kg administered topically as 0.3 % ointment pretreated with IMQ for 6 hrs followed by compound addition once daily for 7 days by q-PCR analysis; format: functional, organism-based; settings: time 7.0 day
Mus musculus [6] = test: Anti-inflammatory activity in IMQ-induced psoriasis in female BALB/c mouse assessed as reduction in IL-1beta mRNA level at 20 mg/kg administered topically as 0.3 % ointment pretreated with IMQ for 6 hrs followed by compound addition once daily for 7 days by q-PCR analysis; format: functional, organism-based; settings: time 7.0 day
Mus musculus [7] = test: Anti-inflammatory activity in IMQ-induced psoriasis in female BALB/c mouse assessed as reduction in CXCL-2 mRNA level at 20 mg/kg administered topically as 0.3 % ointment pretreated with IMQ for 6 hrs followed by compound addition once daily for 7 days by q-PCR analysis; format: functional, organism-based; settings: time 7.0 day
Mus musculus [8] = test: Anti-psoriasis effect in IMQ-induced female BALB/c mouse model assessed as reduction in fibroblast proliferation at 20 mg/kg administered topically as 0.3 % ointment pretreated with IMQ for 6 hrs followed by compound addition once daily for 7 days by H and E staining based analysis; format: functional, organism-based; settings: time 7.0 day
HaCaT [9] = test: Inhibition of CREB phosphorylation in human HaCaT cells assessed as increase in pCREB/CREB ratio at 20 uM incubated for 2 hrs by Western blotting analysis; format: cell-based
Mus musculus [10] = test: Anti-inflammatory activity in IMQ-induced psoriasis in female BALB/c mouse assessed as reduction in IL-6 mRNA level at 20 mg/kg administered topically as 0.3 % ointment pretreated with IMQ for 6 hrs followed by compound addition once daily for 7 days by q-PCR analysis; format: functional, organism-based; settings: time 7.0 day
Mus musculus [11] = test: Anti-psoriasis effect in IMQ-induced female BALB/c mouse model assessed as reduced bleeding in dermal papilla layers at 20 mg/kg administered topically as 0.3 % ointment pretreated with IMQ for 6 hrs followed by compound addition once daily for 7 days by H and E staining based analysis; format: functional, organism-based; settings: time 7.0 day
Mus musculus [12] = test: Anti-inflammatory activity in IMQ-induced psoriasis in female BALB/c mouse assessed as reduction in IL-17 mRNA level at 20 mg/kg administered topically as 0.3 % ointment pretreated with IMQ for 6 hrs followed by compound addition once daily for 7 days by q-PCR analysis; format: functional, organism-based; settings: time 7.0 day
Mus musculus [13] = test: Anti-psoriasis effect in IMQ-induced female BALB/c mouse model assessed as reduction in abnormal rete ridges at 20 mg/kg administered topically as 0.3 % ointment pretreated with IMQ for 6 hrs followed by compound addition once daily for 7 days by H and E staining based analysis; format: functional, organism-based; settings: time 7.0 day
HaCaT [14] = test: Anti-psoriasis activity in M5-stimulated human HaCaT cells assessed as restoration of cAMP level at 20 uM incubated for 2 hrs by competitive ELISA; format: functional, cell-based
[15] = target: T1, 3',5'-cyclic-AMP phosphodiesterase 4D; test: Inhibition of PDE4D (unknown origin)

IC50 [1] [nM] | half-life at 1 µM [2] [min] | Structure (SMILES) | other results
> 100 |  | N[C@@H](CCOc1c(O)ccc2cc(-c3ccc(OC(F)F)c(OCC4CC4)c3)oc12)C(=O)O | 
> 100 |  | O=C(O)[C@@H]1C[C@H](Oc2c(O)ccc3cc(-c4ccc(OC(F)F)c(OCC5CC5)c4)oc23)CN1 | 
30 | 3.7 | COC(=O)[C@H]1C[C@H](Oc2c(O)ccc3cc(-c4ccc(OC(F)F)c(OCC5CC5)c4)oc23)CN1 | 
23.5 | 3.6 | COC(=O)CCCCOc1c(O)ccc2cc(-c3ccc(OC(F)F)c(OCC4CC4)c3)oc12 | 
22 | 1.2 | O=C(O)CCCOc1c(O)ccc2cc(-c3ccc(OC(F)F)c(OCC4CC4)c3)oc12 | 
22.7 |  | CCOC(=O)CCCOc1c(O)ccc2cc(-c3ccc(OC(F)F)c(OCC4CC4)c3)oc12 | 
> 100 |  | O=C(O)[C@H]1C[C@@H](Oc2c(O)ccc3cc(-c4ccc(OC(F)F)c(OCC5CC5)c4)oc23)CN1 | 
10.9 | 4 | COC(=O)[C@@H]1C[C@H](Oc2c(O)ccc3cc(-c4ccc(OC(F)F)c(OCC5CC5)c4)oc23)CN1 | 
 |  | O=C(Nc1c(Cl)cncc1Cl)c1ccc(OC(F)F)c(OCC2CC2)c1 | Activity (Mus musculus [3]): Active; Activity (Mus musculus [4]): Active; Activity (Mus musculus [5]): Active; Activity (Mus musculus [6]): Active; Activity (Mus musculus [7]): Active; Activity (Mus musculus [8]): Active; inhibition (HaCaT [9]): Active; Activity (Mus musculus [10]): Active; Activity (Mus musculus [11]): Active; Activity (Mus musculus [12]): Active; Activity (Mus musculus [13]): Active; Activity (HaCaT [14]): Active
> 100 |  | O=C(O)[C@H]1C[C@H](Oc2c(O)ccc3cc(-c4ccc(OC(F)F)c(OCC5CC5)c4)oc23)CN1 | 
39.1 |  | COC(=O)COc1c(O)ccc2cc(-c3ccc(OC(F)F)c(OCC4CC4)c3)oc12 | 
29.5 | 4.8 | COC(=O)[C@@H](N)CCOc1c(O)ccc2cc(-c3ccc(OC(F)F)c(OCC4CC4)c3)oc12 | 
20.6 | 92.4 | O=C(O)CCCCOc1c(O)ccc2cc(-c3ccc(OC(F)F)c(OCC4CC4)c3)oc12 | 
14.4 | 0.7 | COC(=O)CCCOc1c(O)ccc2cc(-c3ccc(OC(F)F)c(OCC4CC4)c3)oc12 | 
23.7 |  | O=C(O)COc1c(O)ccc2cc(-c3ccc(OC(F)F)c(OCC4CC4)c3)oc12 | 
421 | 21 | Oc1ccc2cc(-c3ccc(OC(F)F)c(OCC4CC4)c3)oc2c1O | IC50 [15]: 421 nM
> 100 |  | O=C(O)[C@@H]1C[C@@H](Oc2c(O)ccc3cc(-c4ccc(OC(F)F)c(OCC5CC5)c4)oc23)CN1 | 
43.7 | 3.4 | COC(=O)[C@@H]1C[C@@H](Oc2c(O)ccc3cc(-c4ccc(OC(F)F)c(OCC5CC5)c4)oc23)CN1 | 
